Laboratory results reported in ChEMBL document CHEMBL5576079, “Discovery of a potent orally available pyrazolopyridone derivative as a novel selective bromodomain and extra-terminal domain (BET)-first bromodomain (BD1) inhibitor” (Bioorg Med Chem Lett, 2024).
Active and inactive are the calls of the source. No cut-off for these calls is given here.

Columns and labels:
Monocyte = assay: Inhibition of LPS-induced MCP-1 production in mouse Monocyte
[1] = Drug concentration in LPS induced mouse plasma at 100 mg/kg measured after 2 hrs; format: ADME, organism-based
[2] = Drug concentration in LPS induced mouse plasma at 10 mg/kg measured after 2 hrs; format: ADME, organism-based
Mus musculus [3] = assay: Anti-inflammatory activity in endotoxemia mouse model assessed as suppression of LPS-induced serum IL-6 level at 10 mg/kg, po preincubated for 30 mins followed by LPS stimulation and measured after 90 mins; format: functional, organism-based; details: time 120.0 min
Mus musculus [4] = assay: Anti-inflammatory activity in endotoxemia mouse model assessed as suppression of LPS-induced serum MCP-1 level at 10 mg/kg, po preincubated for 30 mins followed by LPS stimulation and measured after 90 mins; format: functional, organism-based; details: time 120.0 min

Row | Compound | IC50 (Monocyte) [nM] | concentration at 2 h [1] [ng/mL] | concentration at 2 h [2] [ng/mL] | Activity (Mus musculus [3]) | Activity (Mus musculus [4])
1 | Cc1sc2c(c1C)C(c1ccc(Cl)cc1)=N[C@@H](CC(=O)OC(C)(C)C)c1nnc(C)n1-2 | 2 |  |  |  | 
2 | Cc1csc(-c2cn(C)c(=O)c3cn(CC4CC(C(=O)NC5CCCCC5)CCN(C)C4)nc23)n1 (stereo unspecified) | 1 | 707 | 39.1 | Active | Active
